{"source": "ChEMBL document CHEMBL1201862", "about": "“PubChem BioAssay data set” (2004)", "test_in_all_cases": "NCI anticancer screen, dose series, 48 h", "key": {"[1]": {"test_system": "786-0"}, "[2]": {"test_system": "A498"}, "[3]": {"test_system": "A549"}, "[4]": {"test_system": "ACHN"}, "[5]": {"test_system": "BT-549"}, "[6]": {"test_system": "CAKI-1"}, "[7]": {"test_system": "CCRF-CEM"}, "[8]": {"test_system": "COLO 205"}, "[9]": {"test_system": "DU-145"}, "[10]": {"test_system": "EKVX"}, "[11]": {"test_system": "HCC 2998"}, "[12]": {"test_system": "HCT-116"}, "[13]": {"test_system": "HCT-15"}, "[14]": {"test_system": "HL-60"}, "[15]": {"test_system": "HOP-62"}, "[16]": {"test_system": "HOP-92"}, "[17]": {"test_system": "HT-29"}, "[18]": {"test_system": "Hs-578T"}, "[19]": {"test_system": "IGROV-1"}, "[20]": {"test_system": "K562"}, "[21]": {"test_system": "KM12"}, "[22]": {"test_system": "LOX IMVI"}, "[23]": {"test_system": "M14"}, "[24]": {"test_system": "MCF7"}, "[25]": {"test_system": "MDA-MB-231"}, "[26]": {"test_system": "MDA-MB-435"}, "[27]": {"test_system": "MDA-N"}, "[28]": {"test_system": "MOLT-4"}, "[29]": {"test_system": "Malme-3M"}, "[30]": {"test_system": "NCI-H226"}, "[31]": {"test_system": "NCI-H23"}, "[32]": {"test_system": "NCI-H460"}, "[33]": {"test_system": "NCI-H522"}, "[34]": {"test_system": "NCI/ADR-RES"}, "[35]": {"test_system": "OVCAR-3"}, "[36]": {"test_system": "OVCAR-4"}, "[37]": {"test_system": "OVCAR-5"}, "[38]": {"test_system": "OVCAR-8"}, "[39]": {"test_system": "PC-3"}, "[40]": {"test_system": "RPMI-8226"}, "[41]": {"test_system": "RXF 393"}, "[42]": {"test_system": "SF-268"}, "[43]": {"test_system": "SF-295"}, "[44]": {"test_system": "SF-539"}, "[45]": {"test_system": "SK-MEL-28"}, "[46]": {"test_system": "SK-MEL-2"}, "[47]": {"test_system": "SK-MEL-5"}, "[48]": {"test_system": "SK-OV-3"}, "[49]": {"test_system": "SN12C"}, "[50]": {"test_system": "SNB-19"}, "[51]": {"test_system": "SNB-75"}, "[52]": {"test_system": "SR"}, "[53]": {"test_system": "SW-620"}, "[54]": {"test_system": "T47D"}, "[55]": {"test_system": "TK-10"}, "[56]": {"test_system": "U-251"}, "[57]": {"test_system": "UACC-257"}, "[58]": {"test_system": "UACC-62"}}, "note": "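A five-concentration, 48-hour dose response in 96-well plates underlies each endpoint, interpolated linearly between surrounding concentrations. GI50 marks 50% less growth.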 Calls of active or inactive are those of the source. Cut-off read from the data, not from the text of the source: active = GI50 up to about 1.1 µM and inactive = higher."}
{"molecule": "Clc1cc(Cl)cc(/C=N/C23CC4CC(CC(C4)C2)C3)c1", "values": [{"measurement": "GI50", "setting": "[1]", "value": "> 10 µM (inactive)"}, {"measurement": "GI50", "setting": "[2]", "value": "> 10 µM (inactive)"}, {"measurement": "GI50", "setting": "[3]", "value": "> 10 µM (inactive)"}, {"measurement": "GI50", "setting": "[4]", "value": "> 10 µM (inactive)"}, {"measurement": "GI50", "setting": "[5]", "value": "> 10 µM (inactive)"}, {"measurement": "GI50", "setting": "[6]", "value": "> 10 µM (inactive)"}, {"measurement": "GI50", "setting": "[7]", "value": "> 10 µM (inactive)"}, {"measurement": "GI50", "setting": "[8]", "value": "> 10 µM (inactive)"}, {"measurement": "GI50", "setting": "[9]", "value": "> 10 µM (inactive)"}, {"measurement": "GI50", "setting": "[10]", "value": "> 10 µM (inactive)"}, {"measurement": "GI50", "setting": "[11]", "value": "> 10 µM (inactive)"}, {"measurement": "GI50", "setting": "[12]", "value": "> 10 µM (inactive)"}, {"measurement": "GI50", "setting": "[13]", "value": "> 10", "unit": "µM"}, {"measurement": "GI50", "setting": "[14]", "value": "> 10 µM (inactive)"}, {"measurement": "GI50", "setting": "[15]", "value": "> 10 µM (inactive)"}, {"measurement": "GI50", "setting": "[16]", "value": "> 10 µM (inactive)"}, {"measurement": "GI50", "setting": "[17]", "value": "> 10 µM (inactive)"}, {"measurement": "GI50", "setting": "[18]", "value": "> 10 µM (inactive)"}, {"measurement": "GI50", "setting": "[19]", "value": "> 10 µM (inactive)"}, {"measurement": "GI50", "setting": "[20]", "value": "> 10 µM (inactive)"}, {"measurement": "GI50", "setting": "[21]", "value": "> 10 µM (inactive)"}, {"measurement": "GI50", "setting": "[22]", "value": "> 10 µM (inactive)"}, {"measurement": "GI50", "setting": "[23]", "value": "> 10 µM (inactive)"}, {"measurement": "GI50", "setting": "[24]", "value": "7.59 µM (inactive)"}, {"measurement": "GI50", "setting": "[25]", "value": "> 10 µM (inactive)"}, {"measurement": "GI50", "setting": "[26]", "value": "> 10 µM (inactive)"}, {"measurement": "GI50", "setting": "[27]", "value": "> 10 µM (inactive)"}, {"measurement": "GI50", "setting": "[28]", "value": "> 10 µM (inactive)"}, {"measurement": "GI50", "setting": "[29]", "value": "> 10 µM (inactive)"}, {"measurement": "GI50", "setting": "[30]", "value": "> 10 µM (inactive)"}, {"measurement": "GI50", "setting": "[31]", "value": "> 10 µM (inactive)"}, {"measurement": "GI50", "setting": "[32]", "value": "> 10 µM (inactive)"}, {"measurement": "GI50", "setting": "[33]", "value": "> 10 µM (inactive)"}, {"measurement": "GI50", "setting": "[34]", "value": "> 10 µM (inactive)"}, {"measurement": "GI50", "setting": "[35]", "value": "> 10 µM (inactive)"}, {"measurement": "GI50", "setting": "[36]", "value": "> 10 µM (inactive)"}, {"measurement": "GI50", "setting": "[37]", "value": "> 10 µM (inactive)"}, {"measurement": "GI50", "setting": "[38]", "value": "> 10 µM (inactive)"}, {"measurement": "GI50", "setting": "[39]", "value": "> 10 µM (inactive)"}, {"measurement": "GI50", "setting": "[40]", "value": "> 10 µM (inactive)"}, {"measurement": "GI50", "setting": "[41]", "value": "> 10 µM (inactive)"}, {"measurement": "GI50", "setting": "[42]", "value": "> 10 µM (inactive)"}, {"measurement": "GI50", "setting": "[43]", "value": "> 10 µM (inactive)"}, {"measurement": "GI50", "setting": "[44]", "value": "> 10 µM (inactive)"}, {"measurement": "GI50", "setting": "[45]", "value": "> 10 µM (inactive)"}, {"measurement": "GI50", "setting": "[46]", "value": "> 10 µM (inactive)"}, {"measurement": "GI50", "setting": "[47]", "value": "> 10 µM (inactive)"}, {"measurement": "GI50", "setting": "[48]", "value": "> 10 µM (inactive)"}, {"measurement": "GI50", "setting": "[49]", "value": "> 10 µM (inactive)"}, {"measurement": "GI50", "setting": "[50]", "value": "> 10 µM (inactive)"}, {"measurement": "GI50", "setting": "[51]", "value": "> 10 µM (inactive)"}, {"measurement": "GI50", "setting": "[52]", "value": "> 10 µM (inactive)"}, {"measurement": "GI50", "setting": "[53]", "value": "> 10 µM (inactive)"}, {"measurement": "GI50", "setting": "[54]", "value": "> 10 µM (inactive)"}, {"measurement": "GI50", "setting": "[55]", "value": "> 10 µM (inactive)"}, {"measurement": "GI50", "setting": "[56]", "value": "> 10 µM (inactive)"}, {"measurement": "GI50", "setting": "[57]", "value": "> 10 µM (inactive)"}, {"measurement": "GI50", "setting": "[58]", "value": "> 10 µM (inactive)"}]}
